Experimental data as given in US12065443B2, “Compounds and pharmaceutical compositions thereof for the treatment of diseases” (priority 2017, dated 2024).
Like-named read-outs stand apart in the source and are kept apart here.

How the values were obtained:
SIK1 [1] = molecular target: T1, SIK1 (Homo sapiens, UniProt P57059); assay: biochemical; settings: 33P radioactive SIK kinase assay, AMARA peptide, 10 μM ATP; read-out: SIK1 IC50
T1 construct: purchased Carna Biosciences 02-131
Procedure, shortened: (§1)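 AMARA peptide phosphorylation by SIK1–3 is quantified through ^33P uptake from a labeled/unlabeled ATP blend. Staurosporine at 10 μM final defines full inhibition, 1% DMSO the uninhibited signal. Quench uses phosphoric acid; counting follows filter capture.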

SIK2 [2] = molecular target: T2, SIK2 (Homo sapiens, UniProt Q9H0K1); assay: biochemical; settings: 33P radioactive SIK kinase assay, AMARA peptide, 10 μM ATP
T2 construct: purchased ThermoFisher Scientific PV4792
Procedure, shortened: as §1

SIK3 [3] = molecular target: T3, SIK3 (Homo sapiens, UniProt Q9Y2K2); assay: biochemical
T3 construct: purchased SignalChem S12-11G-100
Procedure, shortened: as §1

SIK1 [4] = molecular target: T1, SIK1; assay: biochemical; settings: ADP-Glo SIK kinase assay
Procedure, shortened: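 Wells with 1% DMSO or 10 μM staurosporine (final) define the control window. The kinase reaction with substrate and ATP runs 120 min at RT, followed by ADP-Glo detection: ATP depletion (40 min) and ADP-derived luminescence (30 min).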

SIK2 [5] = molecular target: T2, SIK2; assay: biochemical; settings: ADP-Glo SIK kinase assay
Procedure, shortened: (§2)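 ADP-Glo luminescent assay of ADP formed by SIK2 or SIK3 with substrate after ATP addition, 120 min at RT. Remaining ATP depleted 40 min, then ADP converted to ATP and read by luciferase luminescence after 30 min. Controls: 1% DMSO and 10 μM staurosporine (final).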

SIK3 [6] = molecular target: T3, SIK3; assay: biochemical; settings: ADP-Glo SIK kinase assay
Procedure, shortened: as §2

[7] = tested on: LPS driven TNFα secretion in Peripheral Blood Mononuclear Cells (PBMC); assay: cells; type: cell-based; settings: Homo sapiens, LPS 1 ng/mL, supernatant after 18-20 h, ELISA
Experimental: This assay measures the inhibition of LPS driven TNFα secretion by a test compound in Peripheral Blood Mononuclear Cells (PBMC), which in turn correlates with SIK inhibition.
PBMCs are isolated from human blood samples (buffy coats). The buffy coat is aseptically transferred into a 50 mL Falcon™ tube, and diluted 1/2 in Phosphate Buffered Saline (PBS). […] The tubes are centrifuged for 35 min at 400× g in temperature controlled centrifuge, without brake, at 25° C. PBMCs are aspirated from the white interface layer between sample and Lymphoprep. PBMCs are washed five times in PBS. […] The PBMCs are finally seeded at 400,000 PBMC/160 μL/96-well.
A compound dilution plate is made in 100% DMSO by 3-fold dilution of 10 mM stock solution of test compound. An intermediate dilution plate (10× final concentration) is made by diluting the compound dilution plate 50-fold in RPMI medium.
20 μL of the 10× final concentration compound is added to the cells and incubated for 1 hour at 37° C. before addition of trigger. No trigger conditions/trigger conditions are spiked with equal final DMSO concentrations of 0.2% DMSO. 20 μL of 10×LPS (final concentration 1 ng/mL) solution are added to all wells except for the ‘no trigger wells’ where 20 μL medium is added. Supernatant is collected after 18-20 h for IL-10 and TNFα determination using ELISA.
The plate is then washed once with PBST (PBS+0.05% Tween20) and once with PBS followed by the addition of 100 μL of blocking buffer (1% Bovine Serum Albumin (BSA)-5% Sucrose) and plates are sealed and incubated for at least 4 h at RT. After washing the plate once with PBST and once with PBS, 40 μL of standard or sample are added (TNFα standard curve is prepared using a 1/2 serial dilution starting from 16000 pg/mL; dilutions are made in dilution buffer (PBS+1% BSA)). Plates are washed twice with PBST, and once with PBS, after which 35 μL of the detection antibody is added (final concentration 0.25 μg/mL diluted in dilution buffer) and plates are incubated for at least 2 h at RT. Plates are washed twice with PBST, and once with PBS, where after 35 μL of Strep-HRP conjugate (0.5 μg/mL final concentration diluted in dilution buffer) is added. Plates are incubated in the dark, at RT for at least 45 min but no longer than 1 hour. Plates are washed twice with PBST, and once with PBS. Thereafter, 50 μL of luminol substrate is added to each well (prepared according to manufacturer's instructions), and incubated for 5 min at RT protected from light.
To measure the inhibition of LPS induced TNFα, percentage inhibition (PIN) values are calculated for all concentrations tested, compared to controls.
PIN values are plotted in concentration-response and EC50 values are derived using GraphPad Prism Software, applying 4-parameter nonlinear regression (sigmoidal) curve fitting.

[8] = tested on: LPS-induced TNFα secretion in monocyte-derived macrophages (MdM); assay: MdM assay: LPS-triggered TNFα (ELISA); type: cell-based, human; settings: Homo sapiens, Macrophage, LPS-triggered TNFα inhibition
Procedure, shortened: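 TNFα ELISA read on supernatants harvested 20 h after LPS (final 200 ng/mL) stimulation. Cells were day-10 macrophages derived from human blood CD14+ monocytes, exposed to 3-fold compound dilutions for 1 h at 37 °C beforehand, with DMSO held at 0.2%.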

[9] = tested on: LPS triggered IL-10 secretion in monocyte-derived macrophages (MdM); assay: MdM assay: LPS-triggered IL-10 (ELISA); type: cell-based, human; settings: maximal fold change vs LPS only, median across assays
Procedure, shortened: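 Readout is IL-10FCmax, the median across at least two runs of the highest fold change over LPS-only, from ELISA absorbance at 450 nm of 2 h supernatants. Macrophages came from day-10 cultures of human CD14+ monocytes, were given compound for 1 h at 37° C in 0.2% DMSO, then 200 ng/mL LPS.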

T1 sequence (P57059 whole entry): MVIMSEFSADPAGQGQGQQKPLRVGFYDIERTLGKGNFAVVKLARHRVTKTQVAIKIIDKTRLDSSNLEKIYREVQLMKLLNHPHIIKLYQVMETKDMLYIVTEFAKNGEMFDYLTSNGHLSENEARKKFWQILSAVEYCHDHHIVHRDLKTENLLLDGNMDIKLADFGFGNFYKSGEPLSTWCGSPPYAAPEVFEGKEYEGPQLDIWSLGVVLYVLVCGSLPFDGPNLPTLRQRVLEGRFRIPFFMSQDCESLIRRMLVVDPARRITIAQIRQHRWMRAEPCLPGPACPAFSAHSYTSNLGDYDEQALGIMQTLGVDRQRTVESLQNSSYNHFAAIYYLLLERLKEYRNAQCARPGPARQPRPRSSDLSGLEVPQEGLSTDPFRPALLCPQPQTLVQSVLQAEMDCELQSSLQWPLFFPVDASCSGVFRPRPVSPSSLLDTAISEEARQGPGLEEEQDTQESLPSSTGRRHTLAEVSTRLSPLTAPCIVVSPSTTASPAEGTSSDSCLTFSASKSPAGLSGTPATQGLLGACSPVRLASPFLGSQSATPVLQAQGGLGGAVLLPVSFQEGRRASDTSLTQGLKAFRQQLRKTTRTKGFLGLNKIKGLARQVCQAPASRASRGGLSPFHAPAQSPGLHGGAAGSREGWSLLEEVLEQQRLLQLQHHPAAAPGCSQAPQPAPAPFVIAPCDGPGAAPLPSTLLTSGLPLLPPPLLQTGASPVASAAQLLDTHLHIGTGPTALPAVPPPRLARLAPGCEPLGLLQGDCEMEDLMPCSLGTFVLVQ
T3 sequence (Q9Y2K2 whole entry): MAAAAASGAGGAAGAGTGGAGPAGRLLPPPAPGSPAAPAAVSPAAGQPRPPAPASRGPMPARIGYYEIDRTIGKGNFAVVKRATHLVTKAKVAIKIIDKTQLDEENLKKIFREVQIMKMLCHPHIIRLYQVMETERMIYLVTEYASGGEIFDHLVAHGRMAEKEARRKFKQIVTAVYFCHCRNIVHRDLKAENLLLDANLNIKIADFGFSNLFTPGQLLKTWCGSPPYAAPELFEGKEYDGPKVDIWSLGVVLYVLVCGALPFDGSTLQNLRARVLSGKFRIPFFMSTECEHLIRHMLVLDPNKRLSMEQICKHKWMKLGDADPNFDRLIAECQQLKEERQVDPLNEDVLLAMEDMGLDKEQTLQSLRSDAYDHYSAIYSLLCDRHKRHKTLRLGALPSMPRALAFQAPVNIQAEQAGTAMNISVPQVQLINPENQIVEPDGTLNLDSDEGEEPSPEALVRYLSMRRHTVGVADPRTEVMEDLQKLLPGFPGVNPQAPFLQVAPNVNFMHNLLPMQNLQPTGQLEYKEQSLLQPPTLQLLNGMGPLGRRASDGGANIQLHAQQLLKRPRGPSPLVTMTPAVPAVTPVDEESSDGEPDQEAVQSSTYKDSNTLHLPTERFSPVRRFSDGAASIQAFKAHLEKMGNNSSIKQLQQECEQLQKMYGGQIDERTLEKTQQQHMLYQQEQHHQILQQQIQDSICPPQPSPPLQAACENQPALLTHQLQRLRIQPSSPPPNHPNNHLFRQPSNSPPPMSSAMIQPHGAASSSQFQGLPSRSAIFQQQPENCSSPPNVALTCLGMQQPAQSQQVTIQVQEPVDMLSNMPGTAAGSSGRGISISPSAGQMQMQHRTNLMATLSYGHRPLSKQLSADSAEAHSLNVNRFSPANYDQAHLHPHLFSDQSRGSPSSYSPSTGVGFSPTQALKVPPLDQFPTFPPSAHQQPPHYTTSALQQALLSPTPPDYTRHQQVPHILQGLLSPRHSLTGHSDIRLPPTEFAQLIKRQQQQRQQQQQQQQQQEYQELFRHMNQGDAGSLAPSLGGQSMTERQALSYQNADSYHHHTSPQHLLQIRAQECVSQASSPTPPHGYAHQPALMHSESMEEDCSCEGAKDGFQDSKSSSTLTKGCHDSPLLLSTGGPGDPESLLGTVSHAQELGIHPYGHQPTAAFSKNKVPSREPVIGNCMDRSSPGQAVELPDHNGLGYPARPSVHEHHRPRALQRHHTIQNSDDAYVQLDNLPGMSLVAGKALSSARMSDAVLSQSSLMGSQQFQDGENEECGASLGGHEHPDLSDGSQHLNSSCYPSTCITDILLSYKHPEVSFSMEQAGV
T2 sequence (Q9H0K1 whole entry): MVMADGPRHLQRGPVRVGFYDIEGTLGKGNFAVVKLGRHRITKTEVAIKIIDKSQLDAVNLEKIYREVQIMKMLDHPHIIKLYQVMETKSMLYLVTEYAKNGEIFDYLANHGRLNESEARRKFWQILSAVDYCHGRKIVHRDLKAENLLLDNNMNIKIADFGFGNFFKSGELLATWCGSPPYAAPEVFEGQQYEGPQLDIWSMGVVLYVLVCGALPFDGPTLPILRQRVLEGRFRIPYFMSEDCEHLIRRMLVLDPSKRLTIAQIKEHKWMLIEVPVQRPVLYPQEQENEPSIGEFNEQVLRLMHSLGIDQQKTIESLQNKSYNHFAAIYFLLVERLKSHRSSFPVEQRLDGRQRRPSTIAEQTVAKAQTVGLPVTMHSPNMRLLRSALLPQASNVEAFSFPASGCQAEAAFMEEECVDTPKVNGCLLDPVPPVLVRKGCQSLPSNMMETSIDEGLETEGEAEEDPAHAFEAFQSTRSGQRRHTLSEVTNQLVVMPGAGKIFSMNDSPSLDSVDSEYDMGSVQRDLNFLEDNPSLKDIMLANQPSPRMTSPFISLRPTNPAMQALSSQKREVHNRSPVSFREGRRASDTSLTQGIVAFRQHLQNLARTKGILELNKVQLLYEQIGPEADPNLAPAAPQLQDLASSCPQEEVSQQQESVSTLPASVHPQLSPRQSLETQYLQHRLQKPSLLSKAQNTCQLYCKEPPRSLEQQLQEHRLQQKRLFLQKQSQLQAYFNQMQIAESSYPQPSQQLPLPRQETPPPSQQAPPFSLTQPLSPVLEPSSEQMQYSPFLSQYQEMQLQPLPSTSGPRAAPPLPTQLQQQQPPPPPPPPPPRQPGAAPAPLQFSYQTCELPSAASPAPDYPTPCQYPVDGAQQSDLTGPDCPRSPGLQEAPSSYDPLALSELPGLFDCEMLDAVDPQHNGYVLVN

| Compound | IC50 (SIK1 [1]) | IC50 (SIK2 [2]) | IC50 (SIK3 [3]) | IC50 (SIK1 [4]) | IC50 (SIK2 [5]) | IC50 (SIK3 [6]) | EC50 [8] | EC50 [7] | IL-10 FCmax median [9] |
| --- | --- | --- | --- | --- | --- | --- | --- | --- | --- |
| COc1cc(-n2cnc3cc(-c4cnn(C5CN(C)C5)c4)ccc32)cc(OC)c1C(=O)NCC(F)(F)F [Cpd 98, 2,6-dimethoxy-4-[5-[1-(1-methylazetidin-3-yl)pyrazol-4-yl]benzimidazol-1-yl]-N-(2,2,2-trifluoroethyl)benzamide] | 10 to 100 nM | 0.01 to 10 nM | 0.01 to 10 nM | 0.01 to 10 nM | 0.01 to 10 nM | 0.01 to 10 nM | 0.1 to 100 nM | 0.1 to 100 nM | ++ (>1.5-4.5) |
| COc1cc(-c2cnc3cc(-c4cnn(C)c4)ccn23)cc(OC)c1C(=O)N1CC(F)(F)C1 [Cpd 173, (3,3-difluoroazetidin-1-yl)-[2,6-dimethoxy-4-[7-(1-methylpyrazol-4-yl)imidazo[1,2-a]pyridin-3-yl]phenyl]methanone] | 10 to 100 nM | 0.01 to 10 nM | 0.01 to 10 nM | 0.01 to 10 nM | 0.01 to 10 nM | 0.01 to 10 nM | 0.1 to 100 nM | 0.1 to 100 nM | ++ (>1.5-4.5) |
| COc1cc(-n2cnc3cc(-c4ccnc(N5CCN(C)CC5)c4)ccc32)cc(OC)c1C(=O)NCC(F)(F)F [compound 120, 2,6-dimethoxy-4-[5-[2-(4-methylpiperazin-1-yl)-4-pyridyl]benzimidazol-1-yl]-N-(2,2,2-trifluoroethyl)benzamide] | 10 to 100 nM | 10 to 100 nM | 0.01 to 10 nM | 10 to 100 nM | 0.01 to 10 nM | 0.01 to 10 nM | 100 to 1000 nM | 0.1 to 100 nM | ++ (>1.5-4.5) |
| CCNC(=O)c1c(OC)cc(-c2cnc3cc(-c4cc(C)no4)ccn23)cc1OC(F)F [compound 123, 2-(difluoromethoxy)-N-ethyl-6-methoxy-4-[7-(3-methylisoxazol-5-yl)imidazo[1,2-a]pyridin-3-yl]benzamide] | 10 to 100 nM | 0.01 to 10 nM | 0.01 to 10 nM |  |  |  | 0.1 to 100 nM | 0.1 to 100 nM | ++ (>1.5-4.5) |
| COc1cc(-c2cnc3cc(-c4cnn(C)c4)ccn23)cc(OC)c1C(=O)N[C@@H](C)C(F)(F)F [compound 132, 2,6-dimethoxy-4-[7-(1-methylpyrazol-4-yl)imidazo[1,2-a]pyridin-3-yl]-N-[(1S)-2,2,2-trifluoro-1-methyl-ethyl]benzamide] | 10 to 100 nM | 10 to 100 nM | 10 to 100 nM |  |  |  | 100 to 1000 nM | 100 to 1000 nM | + (≤1.5) |
| CCN1Cc2cc(-c3cnc4cc(-c5cnn(C)c5)ccn34)cc(OC)c2C1=O [compound 176, 2-ethyl-7-methoxy-5-[7-(1-methylpyrazol-4-yl)imidazo[1,2-a]pyridin-3-yl]isoindolin-1-one] | 10 to 100 nM | 10 to 100 nM | 10 to 100 nM | 10 to 100 nM | 0.01 to 10 nM | 0.01 to 10 nM | 100 to 1000 nM | 0.1 to 100 nM |  |
| CCNC(=O)c1c(OC)cc(-n2cnc3cc(-c4cnn(C)c4)cnc32)cc1OC(F)F [compound 177, 2-(difluoromethoxy)-N-ethyl-6-methoxy-4-[6-(1-methylpyrazol-4-yl)imidazo[4,5-b]pyridin-3-yl]benzamide] | 10 to 100 nM | 10 to 100 nM | 10 to 100 nM | 10 to 100 nM | 0.01 to 10 nM | 0.01 to 10 nM | 100 to 1000 nM | 0.1 to 100 nM |  |
| CCNC(=O)c1c(OC)cc(-c2cnc3cc(-c4cn(C)cn4)ccn23)cc1OC(F)F [compound 178, 2-(difluoromethoxy)-N-ethyl-6-methoxy-4-[7-(1-methylimidazol-4-yl)imidazo[1,2-a]pyridin-3-yl]benzamide] | 10 to 100 nM | 0.01 to 10 nM | 0.01 to 10 nM |  |  |  | 0.1 to 100 nM | 0.1 to 100 nM | ++ (>1.5-4.5) |
| COc1cc(-n2cnc3cc(-c4cnn(C)c4)ccc32)cc(OC)c1C(=O)N1CC(C#N)C1 [compound 192, 1-[2,6-dimethoxy-4-[5-(1-methylpyrazol-4-yl)benzimidazol-1-yl]benzoyl]azetidine-3-carbonitrile] | 10 to 100 nM | 10 to 100 nM | 10 to 100 nM | 10 to 100 nM | 0.01 to 10 nM | 0.01 to 10 nM | 100 to 1000 nM | 100 to 1000 nM |  |
| COc1cc(-c2cnc3cc(-c4cnn(C)c4)ccn23)cc(F)c1C(=O)NCC(F)(F)F [compound 203, 2-fluoro-6-methoxy-4-[7-(1-methylpyrazol-4-yl)imidazo[1,2-a]pyridin-3-yl]-N-(2,2,2-trifluoroethyl)benzamide] | 10 to 100 nM | 0.01 to 10 nM | 0.01 to 10 nM |  |  |  | 0.1 to 100 nM | 0.1 to 100 nM | +++ (>4.5) |

More lines, main results first:

| IC50 (SIK1 [1]) | IC50 (SIK2 [2]) | IC50 (SIK3 [3]) | IC50 (SIK1 [4]) | IC50 (SIK2 [5]) | IC50 (SIK3 [6]) | EC50 [8] | Compound | EC50 [7] | IL-10 FCmax median [9] |
| --- | --- | --- | --- | --- | --- | --- | --- | --- | --- |
| 0.01 to 10 nM | 0.01 to 10 nM | 0.01 to 10 nM | 0.01 to 10 nM | 0.01 to 10 nM | 0.01 to 10 nM | 0.1 to 100 nM | COc1cc(-c2cnc3cc(-c4cnn(C)c4)ccn23)cc(OC)c1C(=O)NCC(F)(F)F [Cpd 88] | 0.1 to 100 nM | ++ (>1.5-4.5) |
| 0.01 to 10 nM | 0.01 to 10 nM | 0.01 to 10 nM | 0.01 to 10 nM | 0.01 to 10 nM | 0.01 to 10 nM | 0.1 to 100 nM | COc1cc(-c2cnc3cc(-c4cnn(C)c4)ccn23)cc(OC)c1C(=O)N[C@H](C)C(F)(F)F [Cpd 174, 2,6-dimethoxy-4-[7-(1-methylpyrazol-4-yl)imidazo[1,2-a]pyridin-3-yl]-N-[(1R)-2,2,2-trifluoro-1-methyl-ethyl]benzamide] | 0.1 to 100 nM | ++ (>1.5-4.5) |
| 0.01 to 10 nM | 0.01 to 10 nM | 0.01 to 10 nM |  |  |  | 0.1 to 100 nM | CCNC(=O)c1c(OC)cc(-c2cnc3cc(-c4cnn(C)c4)ccn23)cc1OC(F)F [compound 116, 2-(difluoromethoxy)-N-ethyl-6-methoxy-4-[7-(1-methylpyrazol-4-yl)imidazo[1,2-a]pyridin-3-yl]benzamide] | 0.1 to 100 nM | ++ (>1.5-4.5) |
| 0.01 to 10 nM | 0.01 to 10 nM | 0.01 to 10 nM |  |  |  | 0.1 to 100 nM | COc1cc(-c2cnc3cc(-c4cnn(C)c4)ccn23)cc(OC)c1C(=O)NCC#N [compound 122, N-(cyanomethyl)-2,6-dimethoxy-4-[7-(1-methylpyrazol-4-yl)imidazo[1,2-a]pyridin-3-yl]benzamide] | 0.1 to 100 nM | ++ (>1.5-4.5) |
